Laboratory results taken from ChEMBL document CHEMBL1201862, “PubChem BioAssay data set” (2004).
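Interpolation was linear, between the two tested concentrations surrounding the appropriate level; five concentrations were tested over 48 hours in 96-well plates. GI50 marks 50% less growth.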 Calls of active or inactive are those of the source. Rule as the data show it: active = GI50 up to about 1.1 µM and inactive = higher.

Assays:
Assay in all cases: inhibition of tumour cell growth, NCI panel, 48 h
[1] = system: HOP-18
[2] = system: HL-60
[3] = system: SNB-75
[4] = system: DMS-114
[5] = system: XF498
[6] = system: SK-MEL-28
[7] = system: NCI-H522
[8] = system: SF-268
[9] = system: SF-539
[10] = system: HCC 2998
[11] = system: KM12
[12] = system: NCI-H460
[13] = system: HT-29
[14] = system: SK-MEL-2
[15] = system: OVCAR-4
[16] = system: OVCAR-5
[17] = system: TK-10
[18] = system: OVCAR-3
[19] = system: OVCAR-8
[20] = system: HCT-116
[21] = system: SNB-19
[22] = system: M14
[23] = system: UACC-62
[24] = system: DLD-1
[25] = system: UACC-257
[26] = system: ACHN
[27] = system: RPMI-8226
[28] = system: MOLT-4
[29] = system: HOP-92
[30] = system: LXFL 529
[31] = system: CCRF-CEM
[32] = system: COLO 205
[33] = system: M19-MEL
[34] = system: A549
[35] = system: SK-OV-3
[36] = system: HCT-15
[37] = system: EKVX
[38] = system: HOP-62
[39] = system: Malme-3M
[40] = system: IGROV-1
[41] = system: LOX IMVI
[42] = system: SR
[43] = system: CAKI-1
[44] = system: UO-31
[45] = system: RXF 631
[46] = system: K562
[47] = system: KM-20L2
[48] = system: SW-620
[49] = system: 786-0
[50] = system: SF-295
[51] = system: U-251
[52] = system: RXF 393
[53] = system: SN12C
[54] = system: SK-MEL-5
[55] = system: SNB-78
[56] = system: DMS-273
[57] = system: NCI-H23

For `O=c1oc2c3ccc4ccccc4c3n(CCCN3CCCCC3)c2c2ccccc12`, the GI50 [1] was > 100 µM (inactive), the GI50 [2] was 17.2 µM (inactive) and the GI50 [3] was 52.2 µM (inactive). The GI50 [4] was > 100 µM (inactive), the GI50 [5] was 64.6 µM (inactive) and the GI50 [6] was 19.1 µM (inactive). For the same compound, the GI50 [7] was > 100 µM (inactive), the GI50 [8] was 59.2 µM (inactive) and the GI50 [9] was 19.4 µM (inactive). The GI50 [10] was > 100 µM (inactive), the GI50 [11] was 26.5 µM (inactive) and the GI50 [12] was 14.7 µM (inactive). For the same compound, the GI50 [13] was 8.39 µM (inactive), the GI50 [14] was > 100 µM (inactive) and the GI50 [15] was 45.9 µM (inactive). For the same compound, the GI50 [16] was > 100 µM (inactive), the GI50 [17] was 42.1 µM (inactive) and the GI50 [18] was > 100 µM (inactive). The GI50 [19] was 32.7 µM (inactive), the GI50 [20] was 16.1 µM (inactive) and the GI50 [21] was > 100 µM (inactive). For the same compound, the GI50 [22] was 11.5 µM (inactive), the GI50 [23] was > 100 µM (inactive) and the GI50 [24] was 25.2 µM (inactive). For the same compound, the GI50 [25] was 33.6 µM (inactive), the GI50 [26] was > 100 µM (inactive) and the GI50 [27] was 32.1 µM (inactive). For the same compound, the GI50 [28] was 3.24 µM (inactive), the GI50 [29] was > 100 µM (inactive) and the GI50 [30] was 62.7 µM (inactive). The GI50 [31] was 17.3 µM (inactive), the GI50 [32] was 10.9 µM (inactive) and the GI50 [33] was 63.2 µM (inactive). For the same compound, the GI50 [34] was 34 µM (inactive), the GI50 [35] was > 100 µM (inactive) and the GI50 [36] was 29.1 µM. For the same compound, the GI50 [37] was > 100 µM (inactive), the GI50 [38] was > 100 µM (inactive) and the GI50 [39] was 20.7 µM (inactive). The GI50 [40] was > 100 µM (inactive), the GI50 [41] was > 100 µM (inactive) and the GI50 [42] was 3.59 µM (inactive). The GI50 [43] was > 100 µM (inactive), the GI50 [44] was > 100 µM (inactive) and the GI50 [45] was 46.7 µM (inactive). For the same compound, the GI50 [46] was 10.2 µM (inactive), the GI50 [47] was 19.5 µM (inactive) and the GI50 [48] was 5.62 µM (inactive). For the same compound, the GI50 [49] was 18.7 µM (inactive) and the GI50 [50] was 46.9 µM (inactive).
`NCC1(N2CCOCC2)C2CCCC21CNc1ccccc1` (stereo unspecified) was tested, and the GI50 [1] was > 100 µM (inactive), the GI50 [2] was 53.8 µM (inactive) and the GI50 [3] was 57.9 µM (inactive). The GI50 [4] was > 100 µM (inactive), the GI50 [5] was 69.8 µM (inactive) and the GI50 [6] was > 100 µM (inactive). For the same compound, the GI50 [7] was > 100 µM (inactive), the GI50 [8] was > 100 µM (inactive) and the GI50 [9] was > 100 µM (inactive). The GI50 [51] was > 100 µM (inactive), the GI50 [10] was 61 µM (inactive) and the GI50 [11] was > 100 µM (inactive). For the same compound, the GI50 [52] was 56.4 µM (inactive), the GI50 [12] was > 100 µM (inactive) and the GI50 [53] was > 100 µM (inactive). For the same compound, the GI50 [13] was > 100 µM (inactive), the GI50 [54] was > 100 µM (inactive) and the GI50 [15] was > 100 µM (inactive). The GI50 [16] was > 100 µM (inactive), the GI50 [17] was > 100 µM (inactive) and the GI50 [18] was > 100 µM (inactive). For the same compound, the GI50 [55] was > 100 µM (inactive), the GI50 [19] was > 100 µM (inactive) and the GI50 [20] was > 100 µM (inactive). The GI50 [21] was > 100 µM (inactive), the GI50 [22] was > 100 µM (inactive) and the GI50 [56] was > 100 µM (inactive). The GI50 [23] was > 100 µM (inactive), the GI50 [24] was > 100 µM (inactive) and the GI50 [25] was > 100 µM (inactive). For the same compound, the GI50 [26] was > 100 µM (inactive), the GI50 [57] was > 100 µM (inactive) and the GI50 [28] was 92.3 µM (inactive). For the same compound, the GI50 [29] was 41.9 µM (inactive), the GI50 [30] was > 100 µM (inactive) and the GI50 [31] was > 100 µM (inactive). For the same compound, the GI50 [32] was > 100 µM (inactive), the GI50 [33] was > 100 µM (inactive) and the GI50 [34] was > 100 µM (inactive). The GI50 [38] was > 100 µM (inactive), the GI50 [39] was > 100 µM (inactive) and the GI50 [40] was > 100 µM (inactive). For the same compound, the GI50 [41] was > 100 µM (inactive), the GI50 [42] was > 100 µM (inactive) and the GI50 [43] was > 100 µM (inactive). For the same compound, the GI50 [44] was > 100 µM (inactive), the GI50 [45] was > 100 µM (inactive) and the GI50 [46] was 90.6 µM (inactive). For the same compound, the GI50 [48] was > 100 µM (inactive), the GI50 [49] was > 100 µM (inactive) and the GI50 [50] was > 100 µM (inactive).
